Measurements: US20240415819A1, “MACROCYCLIC COMPOUNDS AS PROTEASOME SUBUNIT BETA TYPE-5 INHIBITORS” (Lead Discovery Center GmbH, priority 2021, published 2024)

Experiments:
[1] = target: T1, β5 subunit of the human immunoproteasome (IPS) (Homo sapiens, UniProt P28062); experiment: β5 inhibition assay, human immunoproteasome (Suc-LLVY-AMC); type: biochemical; details: IC50 class, Suc-LLVY-AMC substrate
T1 construct: purchased Boston Biochem E-370
In short: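 β5 activity is read as liberated AMC fluorescence (355/460 nm) after 4 h dark reaction at RT with 22.6 μM Suc-LLVY-AMC, stopped by 1 μM bortezomib. Beforehand, 1 nM human IPS and compound sat 10 min at RT in HEPES pH 7.5 buffer containing NaCl, 0.02% SDS and DTT.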

[2] = tested on: HT-29 cells; experiment: CellTiter-Glo luminescent cell viability assay with HT-29 cells (72h incubation); type: cell-based, human; details: Homo sapiens, HT-29, HT29 cells, read-out: CTG HT29
In short: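 Viability read as CellTiter-Glo luminescence after 72 h compound exposure, with 10 μM staurosporine and DMSO as control wells. Seeding 400 cells per well, compound added 24 h post-plating; IC50 from curve fitting.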

[3] = target: T2, β5 subunit of the human constitutive proteasome (CPS) (Homo sapiens, UniProt P28074); experiment: β5 inhibition assay, human constitutive proteasome (Suc-LLVY-AMC); type: biochemical; details: IC50 class, Suc-LLVY-AMC substrate
T2 construct: purchased Boston Biochem E-360
Method: The enzymatic activity of the β5 subunit of the human constitutive proteasome (CPS) is analyzed. In another assay, which differs from the assay of the human constitutive proteasome only in using the human immunoproteasome (IPS) the enzymatic activity of the β5 subunit of the human immunoproteasome (IPS) is analyzed. […] Inhibition is indicated as IC50 [nM] (“-”=not measured).

## Cc1ccc2cc1CNC(=O)[C@H](CCc1ccccc1)NC(=O)[C@@H](NC(=O)C1(N)COC1)CC(=O)N1CCCC(CCO2)C1 (stereo partly drawn) [Compound 158, 3-amino-N-((9S,12S)-5^4-methyl-8,11,14-trioxo-9-phenethyl-4-oxa-7,10-diaza-1(3,1)-piperidina-5(1,3)-benzenacyclotetradecaphane-12-yl)oxetane-3-carboxamide]
[1]
  IC50: < 100 nM
[2]
  IC50: < 100 nM
[3]
  IC50: < 100 nM

## Cc1ccc2cc1CNC(=O)[C@H](CCc1ccccc1)NC(=O)[C@@H](NC(=O)C(C)(C)C#N)CC(=O)N1CCCC(CCO2)C1 (stereo partly drawn) [Compound 294, 2-cyano-2-methyl-N-((9S,12S)-54-methyl-8,11,14-trioxo-9-phenethyl-4-oxa-7,10-diaza-1(3,1)-piperidina-5(1,3)-benzenacyclotetradecaphane-12-yl)propanamide]
[1]
  IC50: < 100 nM
[2]
  IC50: < 100 nM
[3]
  IC50: < 100 nM

## C=CC(=O)N[C@H]1CC(=O)N2CCCC(CCOc3ccc(C)c(c3)CNC(=O)[C@H](CCc3ccccc3)NC1=O)C2 (stereo partly drawn) [Compound 181, N-((9S,12S)-5^4-methyl-8,11,14-trioxo-9-phenethyl-4-oxa-7,10-diaza-1(3,1)-piperidina-5(1,3)-benzenacyclotetradecaphane-12-yl)acrylamide]
[1]
  IC50: < 100 nM
[2]
  IC50: < 100 nM
[3]
  IC50: < 100 nM

## Cc1ccc2cc1CNC(=O)[C@H](CCc1ccccc1)NC(=O)[C@@H](N1C(=O)CCC1=O)CC(=O)N1CCCC(CCO2)C1 (stereo partly drawn) [Compound 43, (9S,12S)-12-(2,5-dioxopyrrolidin-1-yl)-5^4-methyl-9-phenethyl-4-oxa-7,10-diaza-1(3,1)-piperidina-5(1,3)-benzenacyclotetradecaphane-8,11,14-trione]
[1]
  IC50: < 100 nM
[2]
  IC50: < 100 nM
[3]
  IC50: < 100 nM

## Cc1ccc2cc1CNC(=O)[C@H](CCc1ccccc1)NC(=O)[C@@H](Nc1ccccn1)CC(=O)N1CCCC(CCO2)C1 (stereo partly drawn) [Compound 36, (9S,12S)-5^4-methyl-9-phenethyl-12-(pyridin-2-ylamino)-4-oxa-7,10-diaza-1(3,1)-piperidina-5(1,3)-benzenacyclotetradecaphane-8,11,14-trione]
[1]
  IC50: < 100 nM
[2]
  IC50: 100 to 500 nM
[3]
  IC50: < 100 nM

## COc1cccc(CC(=O)N[C@H]2CC(=O)N3CCCC(CCOc4ccc(C)c(c4)CNC(=O)[C@H](CCc4ccccc4)NC2=O)C3)c1 (stereo partly drawn) [Compound 85, 2-(3-methoxyphenyl)-N-((9S,12S)-5^4-methyl-8,11,14-trioxo-9-phenethyl-4-oxa-7,10-diaza-1(3,1)-piperidina-5(1,3)-benzenacyclotetradecaphane-12-yl)acetamide]
[1]
  IC50: < 100 nM
[2]
  IC50: < 100 nM
[3]
  IC50: < 100 nM

## Cc1ccc2cc1CNC(=O)[C@H](CCc1ccccc1)NC(=O)[C@@H](NC(=O)CCc1ccc3[nH]ccc3c1)CC(=O)N1CCCC(CCO2)C1 (stereo partly drawn) [Compound 182, 3-(1H-indol-5-yl)-N-((9S,12S)-5^4-methyl-8,11,14-trioxo-9-phenethyl-4-oxa-7,10-diaza-1(3,1)-piperidina-5(1,3)-benzenacyclotetradecaphane-12-yl)propanamide]
[1]
  IC50: < 100 nM
[2]
  IC50: < 100 nM
[3]
  IC50: < 100 nM

## Cc1ccc2cc1CNC(=O)C(c1cnn(C)c1)NC(=O)CCC(=O)N1CCCC(CCO2)C1 (stereo not drawn) [Compound 116, 5^4-methyl-9-(1-methyl-1H-pyrazol-4-yl)-4-oxa-7,10-diaza-1(3,1)-piperidina-5(1,3)-benzenacyclotetradecaphane-8,11,14-trione]
[1]
  IC50: 100 to 500 nM
[2]
  IC50: 100 to 500 nM
[3]
  IC50: > 5000 nM

## CC(=O)N[C@H]1CCCC(=O)N2CCOC(CCOc3ccc(C)c(c3)CNC(=O)[C@H](CCc3ccccc3)NC1=O)C2 (stereo partly drawn) [Compound 186, N-((9S,12S)-5^4-methyl-8,11,16-trioxo-9-phenethyl-4-oxa-7,10-diaza-1(2,4)-morpholina-5(1,3)-benzenacyclohexadecaphane-12-yl)acetamide]
[1]
  IC50: < 100 nM
[2]
  IC50: 100 to 500 nM
[3]
  IC50: < 100 nM
